Data published in the NIST ThermoML archive (doi:10.1021/je101012n).
Numbers after ± are expanded uncertainties.

Test: mn = molality of the nth substance listed, in mol/kg
Settings: 101 kPa, Liquid, Alternating current cell with electrodes

O=[N+]([O-])[O-].O=[N+]([O-])[O-].[Mn+2] [manganese nitrate] + O
electrical conductivity [S/m]
Settings | 278.1 K | 283.1 K | 298.15 K | 308.15 K | 318.15 K | 343.15 K | 363.15 K
m1 = 0.000917 | 0.05151 ± 0.00021 | 0.05774 ± 0.00023 | 0.07688 ± 0.00031 | 0.08959 ± 0.00036 | 0.1015 ± 0.0004 | 0.1307 ± 0.0005 | 0.155 ± 0.0006
m1 = 0.01047 | 0.1786 ± 0.0007 | 0.2033 ± 0.0008 | 0.282 ± 0.0011 | 0.3382 ± 0.0014 | 0.3934 ± 0.0016 | 0.538 ± 0.0022 | 0.6651 ± 0.0027
m1 = 0.086 | 1.04 ± 0.0042 | 1.179 ± 0.0047 | 1.63 ± 0.0065 | 1.958 ± 0.0078 | 2.295 ± 0.0092 | 3.125 ± 0.013 | 3.692 ± 0.015
m1 = 0.8521 | 7.064 ± 0.028 | 7.973 ± 0.032 | 10.69 ± 0.043 | 12.54 ± 0.05 | 14.41 ± 0.058 | 19.41 ± 0.078 | –

O=[N+]([O-])[O-].O=[N+]([O-])[O-].[Zn+2] [nitric acid, zinc salt] + O
electrical conductivity [S/m]
Settings | 278.15 K | 283.15 K | 298.15 K | 308.15 K | 318.15 K | 343.15 K | 363.15 K
m1 = 8.7e-05 | 0.001368 ± 5e-06 | 0.001579 ± 6e-06 | 0.002248 ± 9e-06 | 0.002744 ± 1.1e-05 | 0.003188 ± 1.3e-05 | 0.004549 ± 1.8e-05 | 0.00575 ± 2.3e-05
m1 = 0.00127 | 0.01814 ± 7e-05 | 0.02081 ± 8e-05 | 0.02942 ± 0.00012 | 0.03606 ± 0.00014 | 0.04205 ± 0.00017 | 0.06014 ± 0.00024 | 0.07615 ± 0.0003
m1 = 0.00874 | 0.1162 ± 0.0005 | 0.1334 ± 0.0005 | 0.1891 ± 0.0008 | 0.2299 ± 0.0009 | 0.2687 ± 0.0011 | 0.383 ± 0.0015 | 0.4824 ± 0.0019
m1 = 0.1275 | 1.391 ± 0.0056 | 1.592 ± 0.0064 | 2.217 ± 0.0089 | 2.658 ± 0.011 | 3.118 ± 0.013 | 4.402 ± 0.018 | 5.442 ± 0.022
m1 = 0.3325 | 3.111 ± 0.012 | 3.653 ± 0.015 | 4.931 ± 0.02 | 5.906 ± 0.024 | 6.986 ± 0.028 | 9.937 ± 0.04 | 11.83 ± 0.047

O=C([O-])O.[K+] [potassium bicarbonate] + O
electrical conductivity [S/m]
Settings | 278.15 K | 283.15 K | 298.15 K | 308.15 K | 318.15 K | 343.15 K | 363.15 K
m1 = 0.001 | 0.007403 ± 3e-05 | 0.00834 ± 3e-05 | 0.01179 ± 5e-05 | 0.01416 ± 5.7e-05 | 0.01673 ± 7e-05 | 0.02401 ± 0.0001 | 0.03038 ± 0.00012
m1 = 0.00992 | 0.0687 ± 0.0003 | 0.07877 ± 0.00032 | 0.1107 ± 0.0004 | 0.1335 ± 0.0005 | 0.1573 ± 0.0006 | 0.2237 ± 0.0009 | 0.2794 ± 0.0011
m1 = 0.09998 | 0.6141 ± 0.0025 | 0.7003 ± 0.0028 | 0.9852 ± 0.0039 | 1.176 ± 0.0047 | 1.383 ± 0.0055 | 1.963 ± 0.0079 | 2.446 ± 0.0098
m1 = 0.5001 | 2.664 ± 0.011 | 3.031 ± 0.012 | 4.206 ± 0.017 | 5.066 ± 0.02 | 5.94 ± 0.024 | 8.391 ± 0.034 | 10.49 ± 0.042
m1 = 0.9999 | 4.748 ± 0.019 | 5.358 ± 0.021 | 7.365 ± 0.029 | 8.802 ± 0.035 | 10.31 ± 0.041 | 14.3 ± 0.057 | 17.93 ± 0.072

[Br-].[K+] [potassium bromide] + O
electrical conductivity [S/m]
Settings | 278.15 K | 283.15 K | 298.15 K | 308.15 K | 318.15 K | 343.15 K | 363.15 K
m1 = 9.9e-05 | 0.0009344 ± 3.7e-06 | 0.001066 ± 4e-06 | 0.001469 ± 6e-06 | 0.00175 ± 7e-06 | 0.002072 ± 8e-06 | 0.002896 ± 1.2e-05 | 0.003522 ± 1.4e-05
m1 = 0.000975 | 0.009114 ± 3.6e-05 | 0.01037 ± 4e-05 | 0.01441 ± 6e-05 | 0.01716 ± 7e-05 | 0.02007 ± 8e-05 | 0.02802 ± 0.00011 | 0.0343 ± 0.00014
m1 = 0.00987 | 0.08994 ± 0.00036 | 0.1022 ± 0.0004 | 0.1417 ± 0.0006 | 0.1689 ± 0.0007 | 0.1974 ± 0.0008 | 0.2761 ± 0.0011 | 0.3376 ± 0.0014
m1 = 0.09755 | 0.8252 ± 0.0033 | 0.9355 ± 0.0037 | 1.29 ± 0.0052 | 1.535 ± 0.0061 | 1.787 ± 0.0071 | 2.491 ± 0.01 | 2.952 ± 0.012
m1 = 1.21 | 8.409 ± 0.034 | 9.363 ± 0.037 | 12.45 ± 0.05 | 14.54 ± 0.058 | 16.72 ± 0.067 | 22.46 ± 0.09 | 26.28 ± 0.11

O=C([O-])[O-].[K+].[K+] [potassium carbonate] + O
electrical conductivity [S/m]
Settings | 278.15 K | 283.15 K | 298.15 K | 308.15 K | 318.15 K | 343.15 K | 363.15 K
m1 = 0.00132 | 0.02129 ± 9e-05 | 0.02471 ± 0.0001 | 0.03642 ± 0.00015 | 0.0439 ± 0.00018 | 0.05331 ± 0.00021 | 0.07921 ± 0.00032 | 0.09755 ± 0.00039
m1 = 0.01048 | 0.1568 ± 0.0006 | 0.1809 ± 0.0007 | 0.2575 ± 0.001 | 0.3146 ± 0.0013 | 0.3758 ± 0.0015 | 0.5522 ± 0.0022 | 0.6987 ± 0.0028
m1 = 0.1319 | 1.589 ± 0.0064 | 1.815 ± 0.0073 | 2.542 ± 0.01 | 3.054 ± 0.012 | 3.59 ± 0.014 | 5.098 ± 0.02 | 6.345 ± 0.025
m1 = 0.3525 | 3.8 ± 0.015 | 4.305 ± 0.017 | 5.942 ± 0.024 | 7.115 ± 0.029 | 8.319 ± 0.033 | 11.6 ± 0.046 | 14.31 ± 0.057

[Cl-].[K+] [potassium chloride] + O
electrical conductivity [S/m]
Settings | 278.15 K | 283.15 K | 298.15 K | 308.15 K | 318.15 K | 343.15 K | 363.15 K
m1 = 0.0001 | 0.0009464 ± 3.8e-06 | 0.001074 ± 4e-06 | 0.001487 ± 6e-06 | 0.001786 ± 7e-06 | 0.002105 ± 8e-06 | 0.002969 ± 1.2e-05 | 0.003716 ± 1.5e-05
m1 = 0.001 | 0.009198 ± 3.7e-05 | 0.0105 ± 0.0001 | 0.01471 ± 6e-05 | 0.01773 ± 7e-05 | 0.0207 ± 0.0001 | 0.02897 ± 0.00012 | 0.03587 ± 0.00014
m1 = 0.01 | 0.0891 ± 0.0004 | 0.1014 ± 0.0004 | 0.1408 ± 0.0006 | 0.1688 ± 0.0007 | 0.1977 ± 0.0008 | 0.2761 ± 0.0011 | 0.3426 ± 0.0014
m1 = 0.1 | 0.8184 ± 0.0033 | 0.9292 ± 0.0037 | 1.283 ± 0.0051 | 1.532 ± 0.0061 | 1.788 ± 0.0072 | 2.471 ± 0.0099 | 3.086 ± 0.012
m1 = 0.5 | 3.875 ± 0.015 | 4.375 ± 0.018 | 5.92 ± 0.024 | 6.981 ± 0.028 | 8.107 ± 0.032 | 11.23 ± 0.045 | 13.48 ± 0.054
m1 = 1 | 7.203 ± 0.029 | 8.084 ± 0.032 | 10.86 ± 0.043 | 12.8 ± 0.051 | 14.77 ± 0.059 | 20.25 ± 0.081 | 24.58 ± 0.098

[F-].[K+] [potassium fluoride] + O
electrical conductivity [S/m]
Settings | 278.15 K | 283.15 K | 298.15 K | 308.15 K | 318.15 K | 343.15 K | 363.15 K
m1 = 0.000325 | 0.002576 ± 1e-05 | 0.002933 ± 1.2e-05 | 0.004125 ± 1.7e-05 | 0.005036 ± 2e-05 | 0.005965 ± 2.4e-05 | 0.008448 ± 3.4e-05 | 0.01046 ± 4e-05
m1 = 0.00109 | 0.008262 ± 3.3e-05 | 0.009509 ± 3.8e-05 | 0.01357 ± 5e-05 | 0.01642 ± 7e-05 | 0.01929 ± 8e-05 | 0.02734 ± 0.00011 | 0.03426 ± 0.00014
m1 = 0.035 | 0.2417 ± 0.001 | 0.2829 ± 0.0011 | 0.3939 ± 0.0016 | 0.4778 ± 0.0019 | 0.5576 ± 0.0022 | 0.7954 ± 0.0032 | 0.9964 ± 0.004
m1 = 0.11 | 0.7375 ± 0.003 | 0.8455 ± 0.0034 | 1.195 ± 0.0048 | 1.445 ± 0.0058 | 1.692 ± 0.0068 | 2.409 ± 0.0096 | 3.004 ± 0.012
m1 = 0.52 | 3.023 ± 0.012 | 3.435 ± 0.014 | 4.804 ± 0.019 | 5.771 ± 0.023 | 6.801 ± 0.027 | 9.683 ± 0.039 | 11.86 ± 0.047
m1 = 0.99 | 5.272 ± 0.021 | 6.034 ± 0.024 | 8.275 ± 0.033 | 9.907 ± 0.04 | 11.75 ± 0.047 | 16.85 ± 0.067 | 20.13 ± 0.081

O=[N+]([O-])[O-].[K+] [potassium nitrate] + O
electrical conductivity [S/m]
Settings | 278.15 K | 283.15 K | 298.15 K | 308.15 K | 318.15 K | 343.15 K | 363.15 K
m1 = 0.000103 | 0.0009389 ± 3.8e-06 | 0.001073 ± 4e-06 | 0.001486 ± 6e-06 | 0.001798 ± 7e-06 | 0.002048 ± 8e-06 | 0.00283 ± 1.1e-05 | 0.00348 ± 1.4e-05
m1 = 0.000997 | 0.008901 ± 3.6e-05 | 0.01015 ± 4e-05 | 0.01411 ± 6e-05 | 0.01701 ± 7e-05 | 0.01956 ± 8e-05 | 0.02717 ± 0.00011 | 0.0338 ± 0.00014
m1 = 0.01026 | 0.0874 ± 0.0004 | 0.09971 ± 0.0004 | 0.1385 ± 0.0006 | 0.1664 ± 0.0007 | 0.1919 ± 0.0008 | 0.2666 ± 0.0011 | 0.3287 ± 0.0013
m1 = 0.09972 | 0.7601 ± 0.003 | 0.8658 ± 0.0035 | 1.201 ± 0.0048 | 1.44 ± 0.0058 | 1.669 ± 0.0067 | 2.342 ± 0.0094 | 2.875 ± 0.011
m1 = 0.4093 | 2.815 ± 0.011 | 3.211 ± 0.013 | 4.407 ± 0.018 | 5.264 ± 0.021 | 6.162 ± 0.025 | 8.59 ± 0.034 | 10.45 ± 0.042
m1 = 0.7941 | 4.806 ± 0.019 | 5.474 ± 0.022 | 7.428 ± 0.03 | 8.831 ± 0.035 | 10.38 ± 0.042 | 14.63 ± 0.059 | 16.97 ± 0.068
